According to patent publication US10385065B2, “Antibacterial compounds” (priority 2014, dated 2019):
Converted amounts (≈) assume the structure as drawn. Where two headings read alike, the source gives them in different places.

How the values were obtained:
Assay type in all cases: cell-based
[1] = test system: Staphylococcus aureus ATCC 29213; assay: MIC, broth microdilution, S. aureus ATCC 29213
[2] = test system: Escherichia coli ATCC 25922; assay: MIC, broth microdilution, E. coli ATCC 25922; settings: ATCC25922, Table 1, wild type strain
[3] = test system: Enterococcus faecium ATCC 19434; assay: MIC, E. faecium ATCC 19434; settings: ATCC19434, Table 2
[4] = test system: Haemophilus influenzae ATCC 49247; assay: MIC, H. influenzae ATCC 49247; settings: ATCC49247, Table 4
[5] = ATCC29213, Table 1, wild type strain, read-out: MIC S. aureus ATCC 29213
[6] = ATCC 29213 / MSSA, Table 2, read-out: MIC S. aureus (MSSA) ATCC 29213 CLSI control strain

Compound | MIC [1, 5] | MIC [1, 6] | MIC [2] | MIC [3] | MIC [4]
Cc1c(-c2cc(F)c(N)cc2F)ccc2c3oc(=O)[nH]c3c(=O)n(C3CC3)c12 [Compound 3, 7-(4-amino-2,5-difluoro-phenyl)-5-cyclopropyl-6-methyl-3H-oxazolo[4,5-c]quinoline-2,4-dione] | 1 to 10 µg/mL (≈ 2.61 to 26.1 µM) | 1 to 10 µg/mL (≈ 2.61 to 26.1 µM) | > 100 µg/mL | > 100 µg/mL | 1 to 10 µg/mL (≈ 2.61 to 26.1 µM)
Cc1nc2c(=O)n(C3CC3)c3c(C)c(-c4cc(F)c(O)cc4F)ccc3c2o1 [Compound 32, 5-cyclopropyl-7-(2,5-difluoro-4-hydroxy-phenyl)-2,6-dimethyl-oxazolo[4,5-c]quinolin-4-one] | < 1 µg/mL | < 1 µg/mL | 1 to 10 µg/mL (≈ 2.62 to 26.2 µM) | 10 to 100 µg/mL (≈ 26.2 to 262 µM) | 1 to 10 µg/mL (≈ 2.62 to 26.2 µM)
Cc1nc2c(=O)n(C3CC3)c3cc(N4CCCC(N)C4)c(F)cc3c2o1 (stereo not shown) [Compound 51, 7-(3-aminopiperidin-1-yl)-5-cyclopropyl-8-fluoro-2-methyl-oxazolo[4,5-c]quinolin-4-one] | 1 to 10 µg/mL (≈ 2.81 to 28.1 µM) | 1 to 10 µg/mL (≈ 2.81 to 28.1 µM) | 1 to 10 µg/mL (≈ 2.81 to 28.1 µM) | 10 to 100 µg/mL (≈ 28.1 to 281 µM) | 1 to 10 µg/mL (≈ 2.81 to 28.1 µM)
Cc1nc2c(=O)n(C3CC3)c3cc(N4CCC(O)C4)c(F)cc3c2o1 (stereo not shown) [Compound 53, 5-cyclopropyl-8-fluoro-7-(3-hydroxypyrrolidin-1-yl)-2-methyl-oxazolo[4,5-c]quinolin-4-one] | 10 to 100 µg/mL (≈ 29.1 to 291 µM) | 10 to 100 µg/mL (≈ 29.1 to 291 µM) | 10 to 100 µg/mL (≈ 29.1 to 291 µM) | > 100 µg/mL | 1 to 10 µg/mL (≈ 2.91 to 29.1 µM)
O=c1c2ncoc2c2cc(F)c(-c3ccncc3Cl)cc2n1C1CC1 [Compound 59, 7-(3-chloro-4-pyridyl)-5-cyclopropyl-8-fluoro-oxazolo[4,5-c]quinolin-4-one] | 1 to 10 µg/mL (≈ 2.81 to 28.1 µM) | 1 to 10 µg/mL (≈ 2.81 to 28.1 µM) | 10 to 100 µg/mL (≈ 28.1 to 281 µM) | > 100 µg/mL | 1 to 10 µg/mL (≈ 2.81 to 28.1 µM)
O=c1c2ncoc2c2cc(F)c(-c3ccc(C(F)(F)F)nc3)cc2n1C1CC1 [Compound 60, 5-cyclopropyl-8-fluoro-7-[6-(trifluoromethyl)-3-pyridyl]oxazolo[4,5-c]quinolin-4-one] | 10 to 100 µg/mL (≈ 25.7 to 257 µM) | 10 to 100 µg/mL (≈ 25.7 to 257 µM) | > 100 µg/mL | > 100 µg/mL | 1 to 10 µg/mL (≈ 2.57 to 25.7 µM)
CCOC(=O)c1ccc(-c2cc3c(cc2F)c2ocnc2c(=O)n3C2CC2)cc1 [Compound 61, ethyl 4-(5-cyclopropyl-8-fluoro-4-oxo-oxazolo[4,5-c]quinolin-7-yl)benzoate] | > 100 µg/mL | > 100 µg/mL | > 100 µg/mL | > 100 µg/mL | > 100 µg/mL
N#Cc1c(F)cc(-c2cc3c(cc2F)c2ocnc2c(=O)n3C2CC2)cc1F [Compound 65, 4-(5-cyclopropyl-8-fluoro-4-oxo-oxazolo[4,5-c]quinolin-7-yl)-2,6-difluoro-benzonitrile] | 1 to 10 µg/mL (≈ 2.62 to 26.2 µM) | 1 to 10 µg/mL (≈ 2.62 to 26.2 µM) | > 100 µg/mL | > 100 µg/mL | 10 to 100 µg/mL (≈ 26.2 to 262 µM)
CN(C)C(=O)c1ccc(-c2cc3c(cc2F)c2ocnc2c(=O)n3C2CC2)cc1 [Compound 66, 4-(5-cyclopropyl-8-fluoro-4-oxo-oxazolo[4,5-c]quinolin-7-yl)-N,N-dimethyl-benzamide] | 1 to 10 µg/mL (≈ 2.55 to 25.5 µM) | 1 to 10 µg/mL (≈ 2.55 to 25.5 µM) | > 100 µg/mL | > 100 µg/mL | 10 to 100 µg/mL (≈ 25.5 to 255 µM)
CNC(=O)c1ccc(-c2cc3c(cc2F)c2ocnc2c(=O)n3C2CC2)cc1F [Compound 67, 4-(5-cyclopropyl-8-fluoro-4-oxo-oxazolo[4,5-c]quinolin-7-yl)-2-fluoro-N-methyl-benzamide] | 1 to 10 µg/mL (≈ 2.53 to 25.3 µM) | 1 to 10 µg/mL (≈ 2.53 to 25.3 µM) | > 100 µg/mL | > 100 µg/mL | 10 to 100 µg/mL (≈ 25.3 to 253 µM)
O=c1c2ncoc2c2cc(F)c(-c3cc(F)c(CO)cc3F)cc2n1C1CC1 [Compound 68, 5-cyclopropyl-7-[2,5-difluoro-4-(hydroxymethyl)phenyl]-8-fluoro-oxazolo[4,5-c]quinolin-4-one] | < 1 µg/mL | < 1 µg/mL | 1 to 10 µg/mL (≈ 2.59 to 25.9 µM) | > 100 µg/mL | < 1 µg/mL
Cc1nc2c(=O)n(C3CC3)c3cc(-c4ccc(C=O)cc4)c(F)cc3c2o1 [Compound 72, 4-(5-cyclopropyl-8-fluoro-2-methyl-4-oxo-oxazolo[4,5-c]quinolin-7-yl)benzaldehyde] | 10 to 100 µg/mL (≈ 27.6 to 276 µM) | 10 to 100 µg/mL (≈ 27.6 to 276 µM) | > 100 µg/mL | > 100 µg/mL | 1 to 10 µg/mL (≈ 2.76 to 27.6 µM)
Cc1nc2c(=O)n(C3CC3)c3cc(-c4ccc5[nH]ncc5c4)c(F)cc3c2o1 [Compound 73, 5-cyclopropyl-8-fluoro-7-(1H-indazol-5-yl)-2-methyl-oxazolo[4,5-c]quinolin-4-one] | < 1 µg/mL | < 1 µg/mL | > 100 µg/mL | > 100 µg/mL | 1 to 10 µg/mL (≈ 2.67 to 26.7 µM)
Cc1nc2c(=O)n(C3CC3)c3c(Cl)c(N4CCC(CN)C4)c(F)cc3c2o1 (stereo not shown) [Compound 110, 7-[3-(aminomethyl)pyrrolidin-1-yl]-6-chloro-5-cyclopropyl-8-fluoro-2-methyl-oxazolo[4,5-c]quinolin-4-one] | < 1 µg/mL |  | < 1 µg/mL |  | 

Second part, the molecule after the results:

MIC [1, 5] | MIC [1, 6] | MIC [2] | MIC [3] | MIC [4] | Compound
10 to 100 µg/mL (≈ 30 to 300 µM) | 10 to 100 µg/mL (≈ 30 to 300 µM) | > 100 µg/mL | > 100 µg/mL | > 100 µg/mL | Cc1c(-c2cnc(N)cn2)ccc2c3ocnc3c(=O)n(C3CC3)c12 [Compound 6, 7-(5-aminopyrazin-2-yl)-5-cyclopropyl-6-methyl-oxazolo[4,5-c]quinolin-4-one]
1 to 10 µg/mL (≈ 3.16 to 31.6 µM) | 1 to 10 µg/mL (≈ 3.16 to 31.6 µM) | > 100 µg/mL | 10 to 100 µg/mL (≈ 31.6 to 316 µM) | 10 to 100 µg/mL (≈ 31.6 to 316 µM) | Cc1c(-c2ccccc2)ccc2c3ocnc3c(=O)n(C3CC3)c12 [Compound 7, 5-cyclopropyl-6-methyl-7-phenyl-oxazolo[4,5-c]quinolin-4-one]
1 to 10 µg/mL (≈ 2.66 to 26.6 µM) | > 100 µg/mL | 10 to 100 µg/mL (≈ 26.6 to 266 µM) | > 100 µg/mL | 1 to 10 µg/mL (≈ 2.66 to 26.6 µM) | Cc1nc2c(=O)n(C3CC3)c3c(C)c(-c4cnn(C5CNC5)c4)ccc3c2o1 [Compound 12, 7-[1-(azetidin-3-yl)pyrazol-4-yl]-5-cyclopropyl-2,6-dimethyl-oxazolo[4,5-c]quinolin-4-one]
< 1 µg/mL | < 1 µg/mL | > 100 µg/mL | > 100 µg/mL | > 100 µg/mL | Cc1nc2c(=O)n(C3CC3)c3c(C)c(-c4ccc(N)c(F)c4)ccc3c2o1 [Compound 13]
< 1 µg/mL | 1 to 10 µg/mL (≈ 2.88 to 28.8 µM) | 10 to 100 µg/mL (≈ 28.8 to 288 µM) | 10 to 100 µg/mL (≈ 28.8 to 288 µM) | 10 to 100 µg/mL (≈ 28.8 to 288 µM) | Cc1nc2c(=O)n(C3CC3)c3c(C)c(-c4cnc(N)nc4)ccc3c2o1 [Compound 16, 7-(2-aminopyrimidin-5-yl)-5-cyclopropyl-2,6-dimethyl-oxazolo[4,5-c]quinolin-4-one]
1 to 10 µg/mL (≈ 2.44 to 24.4 µM) | 1 to 10 µg/mL (≈ 2.44 to 24.4 µM) | 1 to 10 µg/mL (≈ 2.44 to 24.4 µM) | > 100 µg/mL | < 1 µg/mL | Cc1nc2c(=O)n(C3CC3)c3c(C)c(-c4ccc(S(N)(=O)=O)cc4)ccc3c2o1 [Compound 17]
10 to 100 µg/mL (≈ 25.6 to 256 µM) | 10 to 100 µg/mL (≈ 25.6 to 256 µM) | > 100 µg/mL | > 100 µg/mL | 10 to 100 µg/mL (≈ 25.6 to 256 µM) | Cc1nc2c(=O)n(C3CC3)c3c(C)c(-c4cnc(C(C)(C)O)nc4)ccc3c2o1 [Compound 37, 5-cyclopropyl-7-[2-(2-hydroxypropan-2-yl)pyrimidin-5-yl]-2,6-dimethyl-oxazolo[4,5-c]quinolin-4-one]
10 to 100 µg/mL (≈ 27.8 to 278 µM) | 10 to 100 µg/mL (≈ 27.8 to 278 µM) | > 100 µg/mL | > 100 µg/mL | > 100 µg/mL | CC(=O)c1ccc(-c2ccc3c4ocnc4c(=O)n(C4CC4)c3c2C)nc1 [Compound 42, 7-(5-acetylpyridin-2-yl)-5-cyclopropyl-6-methyl-oxazolo[4,5-c]quinolin-4-one]
1 to 10 µg/mL (≈ 3.25 to 32.5 µM) | 1 to 10 µg/mL (≈ 3.25 to 32.5 µM) | 10 to 100 µg/mL (≈ 32.5 to 325 µM) | > 100 µg/mL | 10 to 100 µg/mL (≈ 32.5 to 325 µM) | Cc1c(-c2cnoc2)ccc2c3ocnc3c(=O)n(C3CC3)c12 [Compound 43, 5-cyclopropyl-6-methyl-7-(1,2-oxazol-4-yl)-oxazolo[4,5-c]quinolin-4-one]
> 100 µg/mL | > 100 µg/mL | > 100 µg/mL | > 100 µg/mL | > 100 µg/mL | Cc1c(-c2ccc3[nH]nnc3c2)ccc2c3ocnc3c(=O)n(C3CC3)c12 [Compound 44, 7-(1H-1,2,3-benzotriazol-5-yl)-5-cyclopropyl-6-methyl-oxazolo[4,5-c]quinolin-4-one]
10 to 100 µg/mL (≈ 30 to 300 µM) | 10 to 100 µg/mL (≈ 30 to 300 µM) | > 100 µg/mL | > 100 µg/mL | 10 to 100 µg/mL (≈ 30 to 300 µM) | Cc1c(-c2ccc(O)cn2)ccc2c3ocnc3c(=O)n(C3CC3)c12 [Compound 45, 5-cyclopropyl-7-(5-hydroxypyridin-2-yl)-6-methyl-oxazolo[4,5-c]quinolin-4-one]
10 to 100 µg/mL (≈ 25.2 to 252 µM) | 10 to 100 µg/mL (≈ 25.2 to 252 µM) | > 100 µg/mL | > 100 µg/mL | > 100 µg/mL | Cc1c(-c2cc(F)c(C(=O)O)cc2F)ccc2c3ocnc3c(=O)n(C3CC3)c12 [Compound 47, 4-{5-cyclopropyl-6-methyl-4-oxo-oxazolo[4,5-c]quinolin-7-yl}-2,5-difluorobenzoic acid]
1 to 10 µg/mL (≈ 2.96 to 29.6 µM) | 1 to 10 µg/mL (≈ 2.96 to 29.6 µM) | 10 to 100 µg/mL (≈ 29.6 to 296 µM) | > 100 µg/mL | 1 to 10 µg/mL (≈ 2.96 to 29.6 µM) | Nc1ncc(-c2cc3c(cc2F)c2ocnc2c(=O)n3C2CC2)cn1 [Compound 62, 7-(2-aminopyrimidin-5-yl)-5-cyclopropyl-8-fluoro-oxazolo[4,5-c]quinolin-4-one]
> 100 µg/mL | > 100 µg/mL | > 100 µg/mL | > 100 µg/mL | > 100 µg/mL | COc1ccc(-c2cc3c(cc2F)c2ocnc2c(=O)n3C2CC2)cc1 [Compound 63, 5-cyclopropyl-8-fluoro-7-(4-methoxyphenyl)oxazolo[4,5-c]quinolin-4-one]
10 to 100 µg/mL (≈ 29.7 to 297 µM) | 10 to 100 µg/mL (≈ 29.7 to 297 µM) | > 100 µg/mL | > 100 µg/mL | > 100 µg/mL | Nc1ccc(-c2cc3c(cc2F)c2ocnc2c(=O)n3C2CC2)cn1 [Compound 70, 7-(6-amino-3-pyridyl)-5-cyclopropyl-8-fluoro-oxazolo[4,5-c]quinolin-4-one]
